Assay results: patent publication US6174884A, “1,5-dihydro-pyrazolo[34-D]-pyrimidinone derivatives” (Bayer Aktiengesellschaft, priority 1997, dated 2001)
pIC50: −log10 of the molar value.

Assays:
PDE II = test: Phosphodiesterase inhibition in vitro, PDE II (cGMP-stimulatable); assay type: biochemical, porcine or bovine; conditions: 3H-cAMP substrate, 10^-6 mol/l cGMP added
Source text: (§1) The c-GMP-stimulatable PDE II, the c-GMP-inhibitable PDE III and the cAMP-specific PDE IV were isolated either from porcine or bovine heart myocard. The Ca^2+ -calmodulin-stimulatable PDE I was isolated from porcine aorta, porcine brain or, preferably, bovine aorta. The c-GMP-specific PDE V was obtained from porcine small intestine, porcine aorta, human platelets and, preferably, bovine aorta. They were purified by anion exchange chromatography on MonoQ® Pharmacia following essentially the method of M. Hoey and Miles D. Houslay, Biochemical Pharmacology, Vol. 40, 193-202 (1990) and C. Lugman et al. Biochemical Pharmacology Vol. 35 1743-1751 (1986).
(§2) The enzyme activity is determined in a test batch of 100 μl in 20 mM Tris/HCl buffer pH 7.5 which comprises 5 mM MgCl2, 0.1 mg/ml bovine serum albumin and either 800 Bq ^3 HcAMP or ^3 HcGMP. The end concentration of the corresponding nucleotide is 10^-6 mol/l. The reaction is started by adding the enzyme, and the quantity of enzyme is such that approx. 50% of the substrate are converted during the incubation time of 30 minutes. To test the cGMP-stimulatable PDE II, ^3 HcAMP is used as substrate, 10^-6 mol/l unlabelled cGMP are added to the batch. To test the Ca-calmodulin-dependent PDE I, 1 μM CaCl2 and 0.1 μM calmodulin are also added to the reaction batch. The reaction is stopped by adding 100 μl of acetonitrile which contains 1 mM cAMP and 1 mM AMP. 100 μl of the reaction batch are separated by HPLC and the cleavage products are quantified on-line using a flow scintillation counter. The substance concentration at which the reaction rate is reduced by 50% is measured. Also used for testing were the "Phosphodiesterase [^3 H] cAMP-SPA enzyme assay" and the "Phosphodiesterase [^3 H]cGMP-SPA enzyme assay" by Amersham Life Science. The test was performed following the manufacturer's protocol. To determine the PDE2 activity, the [^3 H] cAMP SPA assay was used, 10^-6 M cGMP being added to the reaction batch for activating the enzyme. To measure PDE1, 10^-7 M calmodulin and 1 μM CaCl2 were added to the reaction batch. PDE5 was measured using the [^3 H] cGMP SPA assay.

PDE I = test: Phosphodiesterase inhibition in vitro, PDE I (Ca-calmodulin-stimulatable); assay type: biochemical, porcine aorta, porcine brain or, preferably, bovine aorta; conditions: Ca/calmodulin added, substrate 10^-6 mol/l
Source text: as §1, §2

PDE V = test: Phosphodiesterase inhibition in vitro, PDE V (cGMP-specific); assay type: biochemical; conditions: 3H-cGMP substrate
Source text: as §1, §2

| Structure (SMILES) | pIC50 (PDE II) | pIC50 (PDE I) | pIC50 (PDE V) |
| --- | --- | --- | --- |
| Cc1nn(C(CCCc2ccccc2)C(C)O)c2nc(Cc3ccccc3)[nH]c(=O)c12 (single isomer, unassigned) [Example 32, 6-Benzyl-1-[1-(1-hydroxy-ethyl)-4-phenyl-butyl]-3-methyl-1,5-dihydro-pyrazolo[3,4-d]pyrimidin-4-one] | 6.52 | 6.30 | 6.52 |
| Cc1nn(C(CCCc2ccccc2)C(C)O)c2nc(Cc3ccccc3)[nH]c(=O)c12 (single isomer, unassigned) [Example 33, 6-Benzyl-1-[1-(1-hydroxy-ethyl)-4-phenyl-butyl]-3-methyl-1,5-dihydro-pyrazolo[3,4-d]pyrimidin-4-one] | 6.30 | 6.30 | 6.10 |
| COc1ccc(Cc2nc3c(cnn3C(C)CCCc3ccccc3)c(=O)[nH]2)cc1OC (stereo not drawn) [Example 9] | 6.52 | 6.52 | 6.52 |
| CC(CCCc1ccccc1)n1ncc2c(=O)[nH]c(Cc3ccc(Cl)c(Cl)c3)nc21 (stereo not drawn) [Example 10] | 6.30 | 6.52 | 7.30 |
| CCc1nn(C(C)CCCc2ccccc2)c2nc(Cc3ccc(Br)cc3)[nH]c(=O)c12 (stereo not drawn) [Example 11, 6-(4-Bromo-benzyl)-1-(1-methyl-4-phenyl-butyl)-3-ethyl-1,5-dihydro-pyrazole[3,4-d]pyrimidin-4-one] | 7.00 | < 5.00 | 7.30 |
